Experiments:
Assay in all cases: relative viability (nuclei count vs DMSO), 5 days (fraction); higher = more cells survive
[1] = system: A-427
How it was run: (§1)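 Medians of duplicate plates are given as relative viability. That measure is the nuclei count in treated wells divided by the count in vehicle wells. Counts were taken on 4× images of lung cancer cell lines in 1536-well plates, 5 days after pin-tool dosing the day after seeding with one drug alone or a fixed anchor-drug dose plus five library-drug doses (not always all listed) in √10 steps.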

[2] = system: ABC-1
How it was run: as §1

[3] = system: EMC-BAC-2
How it was run: as §1

[4] = system: HARA
How it was run: as §1

[5] = system: HOP-62
How it was run: as §1

[6] = system: LK-2
How it was run: as §1

[7] = system: LXF-289
How it was run: as §1

[8] = system: NCI-H1792
How it was run: as §1

[9] = system: NCI-H1944
How it was run: as §1

[10] = system: NCI-H1993
How it was run: as §1

[11] = system: NCI-H2009
How it was run: as §1

[12] = system: NCI-H2170
How it was run: as §1

[13] = system: NCI-H2228
How it was run: as §1

[14] = system: NCI-H3122
How it was run: as §1

[15] = system: NCI-H322M
How it was run: as §1

[16] = system: NCI-H522
How it was run: as §1

[17] = system: NCI-H596
How it was run: as §1

[18] = system: NCI-H727
How it was run: as §1

[19] = system: PC-3 [JPC-3]
How it was run: as §1

[20] = system: SK-MES-1
How it was run: as §1

[21] = system: SW 1573
How it was run: as §1

[22] = system: SW 900
How it was run: as §1

O=c1cc(N2CCOCC2)oc2c(-c3cccc4c3sc3ccccc34)cccc12 + O=C(c1cc(Cc2n[nH]c(=O)c3ccccc23)ccc1F)N1CCN(C(=O)C2CC2)CC1 [Olaparib] (partner 8 µM)
relative viability ([1]; first compound 0.01 µM): 0.742 | relative viability ([1]; first compound 0.03162 µM): 0.706 | relative viability ([1]; first compound 0.1 µM): 0.737 | relative viability ([1]; first compound 0.3162 µM): 0.731 | relative viability ([1]; first compound 1 µM): 0.733 | relative viability ([2]; first compound 0.01 µM): 0.917 | relative viability ([2]; first compound 0.03162 µM): 0.686 | relative viability ([2]; first compound 0.1 µM): 0.535 | relative viability ([2]; first compound 0.3162 µM): 0.677 | relative viability ([2]; first compound 1 µM): 0.726 | relative viability ([3]; first compound 0.01 µM): 0.486 | relative viability ([3]; first compound 0.03162 µM): 0.507 | relative viability ([3]; first compound 0.1 µM): 0.548 | relative viability ([3]; first compound 0.3162 µM): 0.412 | relative viability ([3]; first compound 1 µM): 0.489 | relative viability ([4]; first compound 0.01 µM): 0.762 | relative viability ([4]; first compound 0.03162 µM): 1.01 | relative viability ([4]; first compound 0.1 µM): 0.884 | relative viability ([4]; first compound 0.3162 µM): 0.972 | relative viability ([4]; first compound 1 µM): 0.792 | relative viability ([5]; first compound 0.01 µM): 0.441 | relative viability ([5]; first compound 0.03162 µM): 0.58 | relative viability ([5]; first compound 0.1 µM): 0.409 | relative viability ([5]; first compound 0.3162 µM): 0.523 | relative viability ([5]; first compound 1 µM): 0.377 | relative viability ([6]; first compound 0.01 µM): 0.802 | relative viability ([6]; first compound 0.03162 µM): 0.554 | relative viability ([6]; first compound 0.1 µM): 0.847 | relative viability ([6]; first compound 0.3162 µM): 0.722 | relative viability ([6]; first compound 1 µM): 0.737 | relative viability ([7]; first compound 0.01 µM): 1.01 | relative viability ([7]; first compound 0.03162 µM): 1.08 | relative viability ([7]; first compound 0.1 µM): 1.08 | relative viability ([7]; first compound 0.3162 µM): 1.03 | relative viability ([7]; first compound 1 µM): 1.11 | relative viability ([8]; first compound 0.01 µM): 0.445 | relative viability ([8]; first compound 0.03162 µM): 0.465 | relative viability ([8]; first compound 0.3162 µM): 0.403 | relative viability ([8]; first compound 1 µM): 0.405 | relative viability ([9]; first compound 0.01 µM): 0.438 | relative viability ([9]; first compound 0.03162 µM): 0.406 | relative viability ([9]; first compound 0.1 µM): 0.4 | relative viability ([9]; first compound 0.3162 µM): 0.384 | relative viability ([9]; first compound 1 µM): 0.393 | relative viability ([10]; first compound 0.01 µM): 1.08 | relative viability ([10]; first compound 0.03162 µM): 0.958 | relative viability ([10]; first compound 0.1 µM): 1.23 | relative viability ([10]; first compound 0.3162 µM): 1.04 | relative viability ([10]; first compound 1 µM): 0.984 | relative viability ([11]; first compound 0.01 µM): 0.718 | relative viability ([11]; first compound 0.03162 µM): 0.651 | relative viability ([11]; first compound 0.1 µM): 0.592 | relative viability ([11]; first compound 0.3162 µM): 0.652 | relative viability ([11]; first compound 1 µM): 0.673 | relative viability ([12]; first compound 0.01 µM): 0.673 | relative viability ([12]; first compound 0.03162 µM): 0.589 | relative viability ([12]; first compound 0.1 µM): 0.526 | relative viability ([12]; first compound 0.3162 µM): 0.53 | relative viability ([12]; first compound 1 µM): 0.598 | relative viability ([13]; first compound 0.01 µM): 0.646 | relative viability ([13]; first compound 0.03162 µM): 0.654 | relative viability ([13]; first compound 0.1 µM): 0.891 | relative viability ([13]; first compound 0.3162 µM): 0.803 | relative viability ([13]; first compound 1 µM): 0.571 | relative viability ([14]; first compound 0.01 µM): 0.604 | relative viability ([14]; first compound 0.03162 µM): 0.679 | relative viability ([14]; first compound 0.1 µM): 0.566 | relative viability ([14]; first compound 0.3162 µM): 0.606 | relative viability ([14]; first compound 1 µM): 0.614 | relative viability ([15]; first compound 0.01 µM): 0.688 | relative viability ([15]; first compound 0.03162 µM): 0.827 | relative viability ([15]; first compound 0.3162 µM): 0.73 | relative viability ([15]; first compound 1 µM): 0.725 | relative viability ([16]; first compound 0.01 µM): 0.59 | relative viability ([16]; first compound 0.03162 µM): 0.696 | relative viability ([16]; first compound 0.1 µM): 0.739 | relative viability ([16]; first compound 0.3162 µM): 0.602 | relative viability ([16]; first compound 1 µM): 0.572 | relative viability ([17]; first compound 0.01 µM): 0.675 | relative viability ([17]; first compound 0.03162 µM): 0.628 | relative viability ([17]; first compound 0.1 µM): 0.735 | relative viability ([17]; first compound 0.3162 µM): 0.683 | relative viability ([17]; first compound 1 µM): 0.694 | relative viability ([18]; first compound 0.01 µM): 0.692 | relative viability ([18]; first compound 0.03162 µM): 0.618 | relative viability ([18]; first compound 0.1 µM): 0.679 | relative viability ([18]; first compound 0.3162 µM): 0.711 | relative viability ([18]; first compound 1 µM): 0.684 | relative viability ([19]; first compound 0.01 µM): 1.07 | relative viability ([19]; first compound 0.03162 µM): 1.11 | relative viability ([19]; first compound 0.1 µM): 1.15 | relative viability ([19]; first compound 0.3162 µM): 1.14 | relative viability ([19]; first compound 1 µM): 1.09 | relative viability ([20]; first compound 0.01 µM): 0.68 | relative viability ([20]; first compound 0.03162 µM): 0.71 | relative viability ([20]; first compound 0.1 µM): 0.808 | relative viability ([20]; first compound 0.3162 µM): 0.598 | relative viability ([20]; first compound 1 µM): 0.634 | relative viability ([21]; first compound 0.01 µM): 0.491 | relative viability ([21]; first compound 0.03162 µM): 0.446 | relative viability ([21]; first compound 0.1 µM): 0.447 | relative viability ([21]; first compound 0.3162 µM): 0.441 | relative viability ([21]; first compound 1 µM): 0.466 | relative viability ([22]; first compound 0.03162 µM): 0.918 | relative viability ([22]; first compound 0.1 µM): 0.794 | relative viability ([22]; first compound 0.3162 µM): 0.719 | relative viability ([22]; first compound 1 µM): 0.572

Source: the supplement of paper PMC10307832
